Reference: EPA's ToxValDB 9.5 (doi:10.2903/j.efsa.2008.187r)
“And” between values parts separate entries of the source, which are not always exact repeats. Identical values can stand only once.

Tests used:
[1] = test system: Apis mellifera; conditions: acute, mortality
[2] = test system: Tagia sp.; conditions: chronic/long-term; duration: 8 weeks
[3] = test system: Daphnia magna; conditions: chronic/long-term; duration: 21 days; reproduction
[4] = test system: Colinus virginianus; conditions: oral; for NOEL: short-term
[5] = test system: Coturnix japonica; conditions: acute; oral; mortality
[6] = test system: Anas platyrhynchos

SMILES	LD50 ([1]; dermal) [µg/piece]	LD50 ([1]; oral, unspecified) [µg/piece]	NOEC [2] [mg/kg]	NOEC [3] [mg/L]	LC50 ([4]; acute, diet, mortality) [mg/kg-day]	LD50 ([4]; acute, mortality) [mg/kg]	LD50 [5] [mg/kg]	NOEL ([4]; diet)	NOEL ([6]; reproductive) [mg/kg-day]	NOEL ([6]; short-term, oral, feed)
[Cl-].[Cu+2].[Cu+2].[OH-].[OH-].[OH-] [Dicopper chloride trihydroxide]	44.3	12.1	< 15	0.0076	333	511				
[Cu+].[Cu+].[O-2] [Cuprous oxide]							1180	31.9 mg/kg-day		
O.O.[Cu] [Copper hydroxide (Cu(OH)2)]						223	556	124 mg/kg-day and 132 mg/kg-day	7.05	216 mg/kg-day and 191 mg/kg-day
